Columns and labels:
[1] = test system: rat adjuvant-induced arthritis model; test: Embodiment 2: oral Nib1 and medium-dose methotrexate in rat adjuvant-induced arthritis model (joint score, paw volume, AUC); type: in vivo, Lewis rat; details: MTX 0.5 mpk, Nib1 5 mpk, Nib1 5 mpk + MTX 0.5 mpk; for Total area (AUC of changes in paw volume): Embodiment 2, Tofacitinib 5 mpk, in mL·day
[2] = test system: adjuvant-induced arthritis in rats; test: Embodiment 3: oral Nib1 and methotrexate in adjuvant-induced arthritis in rats (joint score, paw volume, AUC); type: in vivo, Lewis rat; details: oral, Tofacitinib 5 mpk, MTX 0.05 mpk, Nib1 1 mpk, Nib1 1 mpk + MTX 0.05 mpk
rheumatoid arthritis = details: cited from earlier work

With C[C@@H]1CCN(C(=O)CC#N)C[C@@H]1N(C)c1ncnc2[nH]ccc12 [Tofacitinib] the “Relative to G2 percentage (%) (AUC of changes in paw volume)” value ([1]; Embodiment 2, G2 = Vehicle, Tofacitinib 5 mpk) was 44.3%, the “Total area (AUC of changes in paw volume)” value [1] was 16.61 and the “Clinical scoring of arthritis (sum of the scores of the quadrupedal joints), Average value” (from here on “Clinical scoring of arthritis”) ([1]; day 0, Tofacitinib 5 mpk) was 0. For the same molecule, the “paw volume (right hind foot), Average value” (“paw volume (right hind foot)” below) ([1]; day 0, Tofacitinib 5 mpk) was 1.01 mL, the “Clinical scoring of arthritis” value ([1]; day 7, Tofacitinib 5 mpk) was 0.50 and the “paw volume (right hind foot)” value ([1]; day 7, Tofacitinib 5 mpk) was 1.57 mL. For the same molecule, the “Clinical scoring of arthritis” value ([1]; day 13, Tofacitinib 5 mpk) was 1.38, the “paw volume (right hind foot)” value ([1]; day 13, Tofacitinib 5 mpk) was 1.80 mL and the “Clinical scoring of arthritis” value ([1]; day 15, Tofacitinib 5 mpk) was 3.50. The “paw volume (right hind foot)” value ([1]; day 15, Tofacitinib 5 mpk) was 1.81 mL, the “Clinical scoring of arthritis” value ([1]; day 17, Tofacitinib 5 mpk) was 4.88 and the “paw volume (right hind foot)” value ([1]; day 17, Tofacitinib 5 mpk) was 1.85 mL. The “Clinical scoring of arthritis” value ([1]; day 20, Tofacitinib 5 mpk) was 5.13, the “paw volume (right hind foot)” value ([1]; day 20, Tofacitinib 5 mpk) was 1.90 mL and the “Clinical scoring of arthritis” value ([1]; day 22, Tofacitinib 5 mpk) was 5.25. For the same molecule, the “paw volume (right hind foot)” value ([1]; day 22, Tofacitinib 5 mpk) was 1.89 mL, the “Clinical scoring of arthritis” value ([1]; day 24, Tofacitinib 5 mpk) was 4.75 and the “paw volume (right hind foot)” value ([1]; day 24, Tofacitinib 5 mpk) was 1.81 mL. For the same molecule, the “Clinical scoring of arthritis” value ([1]; day 27, Tofacitinib 5 mpk) was 4.50, the “paw volume (right hind foot)” value ([1]; day 27, Tofacitinib 5 mpk) was 1.76 mL and the “Clinical scoring of arthritis” value ([1]; day 29, Tofacitinib 5 mpk) was 4.38. For the same molecule, the “paw volume (right hind foot)” value ([1]; day 29, Tofacitinib 5 mpk) was 1.74 mL, the “Clinical scoring of arthritis” value ([1]; day 31, Tofacitinib 5 mpk) was 4.38 and the “paw volume (right hind foot)” value ([1]; day 31, Tofacitinib 5 mpk) was 1.71 mL. The “Clinical scoring of arthritis” value ([1]; day 34, Tofacitinib 5 mpk) was 4.25, the “paw volume (right hind foot)” value ([1]; day 34, Tofacitinib 5 mpk) was 1.01 mL and the “Relative to G2 percentage (%) (AUC of changes in paw volume)” value ([2]; Embodiment 3, G2 = Vehicle) was 59.2%. For the same molecule, the “Area under the curve AUC (ml*day) of changes in paw volume” value ([2]; Embodiment 3) was 11.27 mL·days, the “Clinical scoring of arthritis” value ([2]; day 0) was 0.00 and the “volume of the right hind foot, Average value” (“volume of the right hind foot” below) ([2]; day 0) was 1.31 mL. For the same molecule, the “Clinical scoring of arthritis” value ([2]; day 8) was 0.33, the “volume of the right hind foot” value ([2]; day 8) was 1.40 mL and the “Clinical scoring of arthritis” value ([2]; day 11) was 2.67. The “volume of the right hind foot” value ([2]; day 11) was 1.76 mL, the “Clinical scoring of arthritis” value ([2]; day 13) was 4.33 and the “Clinical scoring of arthritis” value ([2]; day 15) was 5.67. For the same molecule, the “volume of the right hind foot” value ([2]; day 15) was 2.27 mL, the “Clinical scoring of arthritis” value ([2]; day 18) was 6.33 and the “volume of the right hind foot” value ([2]; day 18) was 2.40 mL. The “Clinical scoring of arthritis” value ([2]; day 21) was 6.22, the “volume of the right hind foot” value ([2]; day 22) was 2.52 mL and the “Clinical scoring of arthritis” value ([2]; day 24) was 5.33.
In the case of CN(Cc1cnc2nc(N)nc(N)c2n1)c1ccc(C(=O)N[C@@H](CCC(=O)O)C(=O)O)cc1 [MTX, Methotrexate], the main side effects (rheumatoid arthritis; rheumatoid arthritis therapy) is given as “liver and gastrointestinal toxicity”, the “patients who stop taking the drug because of side effects” value (rheumatoid arthritis; within a year) is given as “about 50%” and the “Total area (AUC of changes in paw volume)” value [1] is given as 29.94. For the same molecule, the “Clinical scoring of arthritis” value ([1]; day 0, Tofacitinib 5 mpk) was 0, the “paw volume (right hind foot)” value ([1]; day 0, Tofacitinib 5 mpk) was 1.02 mL and the “Clinical scoring of arthritis” value ([1]; day 7, Tofacitinib 5 mpk) was 0.75. The “paw volume (right hind foot)” value ([1]; day 7, Tofacitinib 5 mpk) was 1.98 mL, the “Clinical scoring of arthritis” value ([1]; day 13, Tofacitinib 5 mpk) was 1.75 and the “paw volume (right hind foot)” value ([1]; day 13, Tofacitinib 5 mpk) was 2.10 mL. The “Clinical scoring of arthritis” value ([1]; day 15, Tofacitinib 5 mpk) was 5.50, the “paw volume (right hind foot)” value ([1]; day 15, Tofacitinib 5 mpk) was 2.28 mL and the “Clinical scoring of arthritis” value ([1]; day 17, Tofacitinib 5 mpk) was 7.00. For the same molecule, the “paw volume (right hind foot)” value ([1]; day 17, Tofacitinib 5 mpk) was 2.43 mL, the “Clinical scoring of arthritis” value ([1]; day 20, Tofacitinib 5 mpk) was 7.50 and the “paw volume (right hind foot)” value ([1]; day 20, Tofacitinib 5 mpk) was 2.48 mL. For the same molecule, the “Clinical scoring of arthritis” value ([1]; day 22, Tofacitinib 5 mpk) was 7.63, the “paw volume (right hind foot)” value ([1]; day 22, Tofacitinib 5 mpk) was 2.50 mL and the “Clinical scoring of arthritis” value ([1]; day 24, Tofacitinib 5 mpk) was 7.63. For the same molecule, the “paw volume (right hind foot)” value ([1]; day 24, Tofacitinib 5 mpk) was 2.56 mL, the “Clinical scoring of arthritis” value ([1]; day 27, Tofacitinib 5 mpk) was 7.50 and the “paw volume (right hind foot)” value ([1]; day 27, Tofacitinib 5 mpk) was 2.62 mL. The “Clinical scoring of arthritis” value ([1]; day 29, Tofacitinib 5 mpk) was 7.63, the “paw volume (right hind foot)” value ([1]; day 29, Tofacitinib 5 mpk) was 2.65 mL and the “Clinical scoring of arthritis” value ([1]; day 31, Tofacitinib 5 mpk) was 7.63. The “paw volume (right hind foot)” value ([1]; day 31, Tofacitinib 5 mpk) was 2.66 mL, the “Clinical scoring of arthritis” value ([1]; day 34, Tofacitinib 5 mpk) was 7.50 and the “paw volume (right hind foot)” value ([1]; day 34, Tofacitinib 5 mpk) was 1.02 mL. For the same molecule, the “Area under the curve AUC (ml*day) of changes in paw volume” value ([2]; Embodiment 3) was 19.31 mL·days, the “Clinical scoring of arthritis” value ([2]; day 0) was 0.00 and the “volume of the right hind foot” value ([2]; day 0) was 1.30 mL. For the same molecule, the “Clinical scoring of arthritis” value ([2]; day 8) was 0.44, the “volume of the right hind foot” value ([2]; day 8) was 1.38 mL and the “Clinical scoring of arthritis” value ([2]; day 11) was 4.33. For the same molecule, the “volume of the right hind foot” value ([2]; day 11) was 2.14 mL, the “Clinical scoring of arthritis” value ([2]; day 13) was 7.33 and the “Clinical scoring of arthritis” value ([2]; day 15) was 9.00. The “volume of the right hind foot” value ([2]; day 15) was 2.88 mL, the “Clinical scoring of arthritis” value ([2]; day 18) was 10.22 and the “volume of the right hind foot” value ([2]; day 18) was 3.14 mL. For the same molecule, the “Clinical scoring of arthritis” value ([2]; day 21) was 10.78 and the “Clinical scoring of arthritis” value ([2]; day 24) was 10.89.
